Legend:
Format in all cases: cell-based
PfCRT^Dd2 [1] = target: T1, PfCRT^Dd2 (Plasmodium falciparum, UniProt Q9N623, A220S/I356T/K76T/M74I/N326S/N75E/Q271E/R371I); experiment: [3H]CQ uptake into Xenopus oocytes, cis-inhibition by unlabelled solute; details: PfCRTDd2 oocytes, background [3H]CQ accumulation subtracted, normalised to oocyte type control
In short: (§1)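 Washed oocytes (ten per treatment) were exposed to label in pH 5.5 ND96 for 1.5 h at 27.5 °C. Buffer was then removed, cells rinsed in ice-cold ND96, lysed in SDS and counted.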

PfCRT^Ecu1110 [2] = target: T2, PfCRT^Ecu1110 (Plasmodium falciparum, UniProt Q9N623, A220S/I356L/K76T/N326D); experiment: as above; details: for PfCRT-mediated [3H]CQ transport, cis-inhibition (% PfCRTEcu1110 control): PfCRTEcu1110 oocytes, background [3H]CQ accumulation subtracted, normalised to oocyte type control; for [3H]CQ transport (% PfCRTEcu1110 control), cis-inhibition, PfCRTEcu1110: PfCRT-mediated component (background subtracted), sheet title says normalised to PfCRTDd2 control, mean ± SEM, SEM
T2 sequence (Q9N623 whole entry A220S/I356L/K76T/N326D): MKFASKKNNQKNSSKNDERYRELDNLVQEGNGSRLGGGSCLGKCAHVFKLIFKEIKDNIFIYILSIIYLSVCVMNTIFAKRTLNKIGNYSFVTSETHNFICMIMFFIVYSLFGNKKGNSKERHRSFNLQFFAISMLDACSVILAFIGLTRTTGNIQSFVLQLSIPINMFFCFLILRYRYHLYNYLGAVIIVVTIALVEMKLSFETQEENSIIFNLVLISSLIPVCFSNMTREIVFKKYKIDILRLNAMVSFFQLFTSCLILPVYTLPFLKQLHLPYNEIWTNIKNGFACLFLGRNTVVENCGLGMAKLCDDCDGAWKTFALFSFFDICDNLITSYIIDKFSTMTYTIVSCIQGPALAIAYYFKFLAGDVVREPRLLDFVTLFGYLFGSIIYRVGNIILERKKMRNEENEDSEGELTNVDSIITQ
In short: as §1

PfCRT^3D7 = PfCRT^3D7 (Plasmodium falciparum, UniProt Q8IBZ9); experiment: cell-based; details: PfCRT3D7 oocytes, normalised to oocyte type control
Sequence of PfCRT^3D7 (Q8IBZ9 59-398): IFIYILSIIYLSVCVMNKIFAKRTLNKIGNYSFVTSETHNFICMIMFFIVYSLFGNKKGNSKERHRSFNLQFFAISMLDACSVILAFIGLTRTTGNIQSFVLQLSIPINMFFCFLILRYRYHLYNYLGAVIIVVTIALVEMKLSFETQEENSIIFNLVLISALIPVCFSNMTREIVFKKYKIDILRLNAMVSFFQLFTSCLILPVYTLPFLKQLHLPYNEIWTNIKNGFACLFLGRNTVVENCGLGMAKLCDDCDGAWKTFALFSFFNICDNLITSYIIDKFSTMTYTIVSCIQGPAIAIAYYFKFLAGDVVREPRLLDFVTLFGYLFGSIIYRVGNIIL
In short: (§2)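 Transport measured in Xenopus oocytes expressing the transporters, 1.5 h at 27.5 °C in ND96 pH 5.5 unless noted. For trans-stimulation, VF-6 injected in 25 nL ND96 at pH 5.0–7.0 or Na^+-free (choline) buffer; intracellular levels based on ~400 nL oocyte volume. Ten oocytes per treatment, ≥4 experiments.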

PfCRT^Dd2 [3] = target: T1, PfCRT^Dd2; experiment: cell-based; details: for PfCRT-mediated [3H]CQ transport, trans-stimulation (% PfCRTDd2 control): PfCRTDd2 oocytes, normalised to oocyte type control; for [3H]CQ transport (% PfCRTDd2 control), trans-stimulation, PfCRTDd2: PfCRT-mediated component (background subtracted), mean ± SEM, SEM
In short: as §2

PfCRT^Ecu1110 [4] = target: T2, PfCRT^Ecu1110; experiment: cell-based; details: for PfCRT-mediated [3H]CQ transport, trans-stimulation (% PfCRTEcu1110 control): PfCRTEcu1110 oocytes, normalised to oocyte type control; for [3H]CQ transport (% PfCRTDd2 control), trans-stimulation, PfCRTEcu1110: PfCRT-mediated component (background subtracted), sheet title says normalised to PfCRTDd2 control, mean ± SEM, SEM
In short: as §2

[5] = [test solute]i = 5 mM (intracellular)
[6] = [test solute]i = 45 mM (intracellular; 30 mM for some solutes due to solubility)
[7] = [test solute]i = 5 mM (injected)
[8] = [test solute]i = 45 mM (30 mM for some solutes due to solubility)

T1 sequence (Q9N623 whole entry A220S/I356T/K76T/M74I/N326S/N75E/Q271E/R371I): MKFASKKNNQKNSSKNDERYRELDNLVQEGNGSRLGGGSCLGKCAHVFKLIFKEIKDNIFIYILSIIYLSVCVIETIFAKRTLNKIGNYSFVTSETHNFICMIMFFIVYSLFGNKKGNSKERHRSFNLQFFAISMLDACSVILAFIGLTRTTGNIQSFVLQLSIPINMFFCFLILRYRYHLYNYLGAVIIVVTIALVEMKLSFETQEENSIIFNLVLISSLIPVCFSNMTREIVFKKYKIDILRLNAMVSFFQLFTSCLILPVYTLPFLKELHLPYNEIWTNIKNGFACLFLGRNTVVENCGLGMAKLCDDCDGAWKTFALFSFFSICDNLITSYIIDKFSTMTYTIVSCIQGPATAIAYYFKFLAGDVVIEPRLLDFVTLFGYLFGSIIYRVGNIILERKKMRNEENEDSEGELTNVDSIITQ

Row | Substance | PfCRT-mediated [3H]CQ transport, cis-inhibition (% PfCRTDd2 control) (PfCRT^Dd2 [1]; [test solute] = 0.5 mM) | PfCRT-mediated [3H]CQ transport, cis-inhibition (% PfCRTDd2 control) (PfCRT^Dd2 [1]; [test solute] = 1 mM) | PfCRT-mediated [3H]CQ transport, cis-inhibition (% PfCRTDd2 control) (PfCRT^Dd2 [1]; [test solute] = 2 mM) | PfCRT-mediated [3H]CQ transport, cis-inhibition (% PfCRTEcu1110 control) (PfCRT^Ecu1110 [2]; [test solute] = 0.5 mM) | PfCRT-mediated [3H]CQ transport, cis-inhibition (% PfCRTEcu1110 control) (PfCRT^Ecu1110 [2]; [test solute] = 1 mM) | PfCRT-mediated [3H]CQ transport, cis-inhibition (% PfCRTEcu1110 control) (PfCRT^Ecu1110 [2]; [test solute] = 2 mM) | [3H]CQ transport (% PfCRTEcu1110 control), cis-inhibition, PfCRTEcu1110 (PfCRT^Ecu1110 [2]; [test solute] = 0.5 mM) [% PfCRTEcu1110 control] | [3H]CQ transport (% PfCRTEcu1110 control), cis-inhibition, PfCRTEcu1110 (PfCRT^Ecu1110 [2]; [test solute] = 1 mM) [% PfCRTEcu1110 control] | [3H]CQ transport (% PfCRTEcu1110 control), cis-inhibition, PfCRTEcu1110 (PfCRT^Ecu1110 [2]; [test solute] = 2 mM) [% PfCRTEcu1110 control] | PfCRT-mediated [3H]CQ transport, trans-stimulation (% PfCRT3D7 control) (PfCRT^3D7; [5]) | PfCRT-mediated [3H]CQ transport, trans-stimulation (% PfCRT3D7 control) (PfCRT^3D7; [6]) | PfCRT-mediated [3H]CQ transport, trans-stimulation (% PfCRTDd2 control) (PfCRT^Dd2 [3]; [5]) | PfCRT-mediated [3H]CQ transport, trans-stimulation (% PfCRTDd2 control) (PfCRT^Dd2 [3]; [6]) | [3H]CQ transport (% PfCRTDd2 control), trans-stimulation, PfCRTDd2 (PfCRT^Dd2 [3]; [7]) [% PfCRTDd2 control] | [3H]CQ transport (% PfCRTDd2 control), trans-stimulation, PfCRTDd2 (PfCRT^Dd2 [3]; [8]) [% PfCRTDd2 control] | PfCRT-mediated [3H]CQ transport, trans-stimulation (% PfCRTEcu1110 control) (PfCRT^Ecu1110 [4]; [5]) | PfCRT-mediated [3H]CQ transport, trans-stimulation (% PfCRTEcu1110 control) (PfCRT^Ecu1110 [4]; [6]) | [3H]CQ transport (% PfCRTDd2 control), trans-stimulation, PfCRTEcu1110 (PfCRT^Ecu1110 [4]; [7]) [% PfCRTEcu1110 control] | [3H]CQ transport (% PfCRTDd2 control), trans-stimulation, PfCRTEcu1110 (PfCRT^Ecu1110 [4]; [8]) [% PfCRTEcu1110 control]
1 | HVDPEN [HN-6] | 21 ± 0.7 | 15 ± 1.1 | 7.3 ± 0.2 | 61 ± 1.5 | 44 ± 3.1 | 49 ± 2.4 | 19 ± 0.3 | 14 ± 0.1 | 15 ± 0.4 | 148 ± 4.6 | 193 ± 4.7 | 100 ± 2.1 | 113 ± 1.1 | 100 ± 2.1 | 113 ± 1.1 | 117 ± 2.2 | 136 ± 3.2 | 35 ± 1.3 | 41 ± 1.6
2 | HVDPENF [HF-7] | 40 ± 2.3 | 31 ± 2.3 | 18 ± 0.6 | 41 ± 1.8 | 31 ± 3.1 | 22 ± 0.4 | – | – | 7.0 ± 0.01 | 140 ± 5.2 | 189 ± 6.2 | 100 ± 1.9 | 112 ± 1.7 | 100 ± 1.9 | 112 ± 1.7 | 131 ± 3.7 | 138 ± 4.1 | 40 ± 2.1 | 42 ± 1.5
3 | HVDPENFRL [HL-9] | 38 ± 1.0 | 31 ± 0.3 | 9 ± 0.8 | 41 ± 2.5 | 35 ± 2.6 | 28 ± 0.1 | – | – | – | 98 ± 3.5 | 97 ± 3.1 | 97 ± 2.0 | 98 ± 3.3 | – | – | 98 ± 3.6 | 96 ± 2.1 | – | –

From publication PMC7413254 (Nature Communications, 2020)
